Consider 20 compounds from patent publication US9238656B2, “Imidazo[4,5-b]pyridine derivatives as ALK and JAK modulators for the treatment of proliferative disorders” (priority 2012, dated 2016).

Usually melting point stands for the temperature of the solid-liquid transition.

The target in data set [1] is baculovirus-expressed JAK2 kinase (Homo sapiens, UniProt O60674). Put plainly: biochemical. Conditions: 0.2 μM ATP; read-out: JAK2 Potency. Summed up: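 Time-resolved fluorescence kinase assay using 15 ng/mL baculovirus-expressed JAK2 on Neutravidin-captured biotinylated 15-mer peptide substrate, reaction 20 min at room temperature. IC50 from percent inhibition versus log concentration, sigmoidal variable-slope fit.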

For data set [2], the target named is baculovirus-expressed ALK (Homo sapiens, UniProt Q9UM73). Put plainly: ALK kinase inhibition, TRF/ELISA. The class given is biochemical. Conditions: read-out: ALK Potency. Summed up:
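Plates were coated with GST-PLC-γ substrate (10 μg/mL) and the reaction was started with 30 ng/mL ALK, running 15 min at 37° C. Phosphotyrosine was detected by time-resolved fluorescence with Eu-labeled PT66 antibody. IC50s came from variable-slope sigmoidal fits of percent inhibition versus log concentration.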
A general note: In an ELISA, binding on a coated surface is turned into a signal by an enzyme label.

Molecules are shown by their SMILES. pIC50: −log10 of the molar value.

baculovirus-expressed ALK, sequence (Q9UM73 19-1620): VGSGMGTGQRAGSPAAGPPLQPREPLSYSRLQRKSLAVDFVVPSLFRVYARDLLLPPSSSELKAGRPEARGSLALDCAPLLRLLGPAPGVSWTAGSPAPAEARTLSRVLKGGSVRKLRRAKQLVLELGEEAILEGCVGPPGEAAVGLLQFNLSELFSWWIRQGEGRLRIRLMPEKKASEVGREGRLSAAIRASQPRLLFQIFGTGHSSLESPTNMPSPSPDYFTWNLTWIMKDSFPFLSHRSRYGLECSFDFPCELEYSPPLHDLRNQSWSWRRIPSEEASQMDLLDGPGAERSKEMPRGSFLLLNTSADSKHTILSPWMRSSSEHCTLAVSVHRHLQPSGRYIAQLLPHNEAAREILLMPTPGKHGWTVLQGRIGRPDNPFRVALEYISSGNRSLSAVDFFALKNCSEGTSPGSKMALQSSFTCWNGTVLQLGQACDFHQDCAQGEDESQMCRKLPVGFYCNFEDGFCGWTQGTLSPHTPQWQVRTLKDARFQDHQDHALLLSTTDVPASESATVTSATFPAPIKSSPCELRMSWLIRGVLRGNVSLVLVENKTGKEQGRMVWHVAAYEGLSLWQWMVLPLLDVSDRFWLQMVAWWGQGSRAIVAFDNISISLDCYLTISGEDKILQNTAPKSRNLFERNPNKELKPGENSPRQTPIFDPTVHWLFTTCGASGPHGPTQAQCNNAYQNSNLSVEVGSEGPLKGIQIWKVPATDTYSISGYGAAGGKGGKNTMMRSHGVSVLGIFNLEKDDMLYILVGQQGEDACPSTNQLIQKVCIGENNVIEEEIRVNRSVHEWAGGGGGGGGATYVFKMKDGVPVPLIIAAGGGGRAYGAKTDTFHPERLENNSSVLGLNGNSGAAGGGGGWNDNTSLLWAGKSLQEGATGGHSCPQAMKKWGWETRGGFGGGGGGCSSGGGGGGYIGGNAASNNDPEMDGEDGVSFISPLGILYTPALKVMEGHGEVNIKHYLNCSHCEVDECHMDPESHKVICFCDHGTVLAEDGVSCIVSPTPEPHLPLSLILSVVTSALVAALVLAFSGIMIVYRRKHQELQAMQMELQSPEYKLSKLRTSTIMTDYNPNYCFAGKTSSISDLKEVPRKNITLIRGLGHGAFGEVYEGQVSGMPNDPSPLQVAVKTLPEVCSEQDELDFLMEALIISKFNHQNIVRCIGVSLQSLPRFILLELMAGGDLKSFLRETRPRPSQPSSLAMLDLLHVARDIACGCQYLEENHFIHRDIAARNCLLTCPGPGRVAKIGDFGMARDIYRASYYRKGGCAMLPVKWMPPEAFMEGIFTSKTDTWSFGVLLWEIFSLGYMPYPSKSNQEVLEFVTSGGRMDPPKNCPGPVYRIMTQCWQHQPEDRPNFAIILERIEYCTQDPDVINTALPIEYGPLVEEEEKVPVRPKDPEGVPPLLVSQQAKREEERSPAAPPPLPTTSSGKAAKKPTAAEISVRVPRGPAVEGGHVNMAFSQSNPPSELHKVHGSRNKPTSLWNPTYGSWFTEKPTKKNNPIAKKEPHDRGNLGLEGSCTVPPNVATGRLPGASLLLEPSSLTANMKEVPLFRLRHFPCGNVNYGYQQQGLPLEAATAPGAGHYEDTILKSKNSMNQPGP
baculovirus-expressed JAK2 kinase, sequence (O60674 whole entry): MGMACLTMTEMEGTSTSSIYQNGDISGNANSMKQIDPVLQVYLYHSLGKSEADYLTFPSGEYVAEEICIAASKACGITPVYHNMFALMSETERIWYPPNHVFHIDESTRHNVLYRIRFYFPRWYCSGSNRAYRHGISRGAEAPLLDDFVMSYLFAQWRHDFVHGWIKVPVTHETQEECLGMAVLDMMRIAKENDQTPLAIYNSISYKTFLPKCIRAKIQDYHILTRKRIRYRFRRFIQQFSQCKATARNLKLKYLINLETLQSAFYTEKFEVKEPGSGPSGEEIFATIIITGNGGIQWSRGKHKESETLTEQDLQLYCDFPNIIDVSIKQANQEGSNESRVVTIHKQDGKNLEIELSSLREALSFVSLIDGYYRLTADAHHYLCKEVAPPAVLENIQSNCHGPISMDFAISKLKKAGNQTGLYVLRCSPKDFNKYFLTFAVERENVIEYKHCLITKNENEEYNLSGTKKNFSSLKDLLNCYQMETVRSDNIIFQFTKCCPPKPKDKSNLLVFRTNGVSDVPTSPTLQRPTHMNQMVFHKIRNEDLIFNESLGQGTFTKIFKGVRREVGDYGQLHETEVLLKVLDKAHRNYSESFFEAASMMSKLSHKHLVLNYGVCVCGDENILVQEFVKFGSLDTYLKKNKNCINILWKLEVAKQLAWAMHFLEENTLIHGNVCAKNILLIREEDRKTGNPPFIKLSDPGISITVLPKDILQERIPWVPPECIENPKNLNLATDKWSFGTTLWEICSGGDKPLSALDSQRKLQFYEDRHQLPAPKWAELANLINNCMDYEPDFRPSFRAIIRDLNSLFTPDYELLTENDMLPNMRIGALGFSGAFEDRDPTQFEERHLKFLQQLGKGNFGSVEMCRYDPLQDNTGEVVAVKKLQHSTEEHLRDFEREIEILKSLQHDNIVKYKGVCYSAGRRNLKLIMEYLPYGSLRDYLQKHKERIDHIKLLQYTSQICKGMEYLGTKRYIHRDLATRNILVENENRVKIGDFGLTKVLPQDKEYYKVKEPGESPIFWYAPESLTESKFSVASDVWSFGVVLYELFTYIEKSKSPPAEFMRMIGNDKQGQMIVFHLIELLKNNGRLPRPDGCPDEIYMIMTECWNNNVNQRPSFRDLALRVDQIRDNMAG

On to `COc1cc(N2CCN(C)CC2)ccc1-c1nc2c(N[C@H]3[C@@H](C(N)=O)[C@@H]4C=C[C@H]3C4)c(Br)cnc2[nH]1` [Compound XCVI, (1S,2S,3R,4R)-3-{6-Bromo-2-[2-methoxy-4-(4-methyl-piperazin-1-yl)-phenyl]-3H-imidazo[4,5-b]pyridin-7-ylamino}-bicyclo[2.2.1]hept-5-ene-2-carboxylic acid amide], for which the melting point is 185 to 195 °C. The pIC50 in data set [1] was over 7.00. For the same compound, the pIC50 in data set [2] is over 7.00.
With `NC(=O)[C@@H]1[C@H](Nc2c(Br)cnc3[nH]c(-c4cccc(CN5CCOCC5)c4)nc23)[C@H]2C=C[C@@H]1C2` [Compound LXXXI, (1S,2S,3R,4R)-3-[6-Bromo-2-(3-morpholin-4-ylmethyl-phenyl)-3H-imidazo[4,5-b]pyridin-7-ylamino]-bicyclo[2.2.1]hept-5-ene-2-carboxylic acid amide], the melting point was in the range of 184 to 185 °C. The pIC50 in data set [1] is over 7.00. In addition, the pIC50 in data set [2] is over 7.00.
Turning to `NC(=O)[C@@H]1[C@H](Nc2c(Br)cnc3[nH]c(-c4cccnc4N4CCCC4)nc23)[C@H]2C=C[C@@H]1C2` [Compound CV, (1S,2S,3R,4R)-3-[6-Bromo-2-(2-pyrrolidin-1-yl-pyridin-3-yl)-3H-imidazo[4,5-b]pyridin-7-ylamino]-bicyclo[2.2.1]hept-5-ene-2-carboxylic acid amide], the melting point was determined as 190 °C. Further, the pIC50 in data set [1] was 5.00 to 6.00. Also, in data set [2], the pIC50 was 5.00 to 6.00.
`COc1cc(CN2CCN(C[C@H](C)O)CC2)ccc1-c1nc2c(N[C@H]3[C@@H](C(N)=O)[C@@H]4C=C[C@H]3C4)c(Cl)cnc2[nH]1` [Compound XLIII, (1S,2S,3R,4R)-3-(6-Chloro-2-{4-[4-((S)-2-hydroxypropyl)-piperazin-1-ylmethyl]-2-methoxyphenyl}-3H-imidazo[4,5-b]pyridine-7-ylamino)-bicyclo[2.2.1]hept-5-ene-2-carboxylic acid amide] came in with a melting point of 142 to 146 °C. In addition, the pIC50 in data set [1] was over 7.00. The pIC50 in data set [2] was over 7.00.
As for `COc1cc(CN2CC[C@H](O)C2)ccc1-c1nc2c(N[C@H]3[C@@H](C(N)=O)[C@@H]4C=C[C@H]3C4)c(Cl)cnc2[nH]1` [Compound LV, (1S,2S,3R,4R)-3-{6-Chloro-2-[4-((S)-3-hydroxy-pyrrolidin-1-ylmethyl)-2-methoxyphenyl]-3H-imidazo[4,5-b]pyridine-7-ylamino}-bicyclo[2.2.1]hept-5-ene-2-carboxylic acid amide], the melting point lay within 205 to 208 °C. Also, the pIC50 in data set [1] was over 7.00. Further, in data set [2], the pIC50 is over 7.00.
For `CC(O)CN1CCN(C(=O)c2cccc(-c3nc4c(N[C@H]5[C@@H](C(N)=O)[C@@H]6C=C[C@H]5C6)c(Cl)cnc4[nH]3)c2)CC1` (stereo partly drawn) [Compound CCXXIII, (1S,2S,3R,4R)-3-(6-chloro-2-(3-(4-(2-hydroxypropyl)piperazine-1-carbonyl)phenyl)-3H-imidazo[4,5-b]pyridine-7-ylamino)pyridin[2.2.1]hept-5-ene-2-carboxamide], the melting point amounted to 183 °C. The pIC50 in data set [1] was over 7.00. Moreover, the pIC50 in data set [2] was 6.00 to 7.00.
As for `CC(O)CN1CCN(C(=O)c2ccc(-c3nc4c(N[C@H]5[C@@H](C(N)=O)[C@@H]6C=C[C@H]5C6)c(Cl)cnc4[nH]3)cc2)CC1` (stereo partly drawn) [Compound CCXXIV, (1S,2S,3R,4R)-3-(6-chloro-2-(4-(4-(2-hydroxypropyl)piperazine-1-carbonyl)phenyl)-3H-imidazo[4,5-b]pyridine-7-ylamino)pyridin[2.2.1]hept-5-ene-2-carboxamide], the melting point is 224 °C. Also, in data set [1], the pIC50 is over 7.00. Further, the pIC50 in data set [2] was over 7.00.
Take `NC(=O)[C@@H]1[C@H](Nc2c(Br)cnc3[nH]c(-c4cccnc4N4CCOCC4)nc23)[C@H]2C=C[C@@H]1C2` [Compound CII, (1S,2S,3R,4R)-3-[6-Bromo-2-(2-morpholin-4-yl-pyridin-3-yl)-3H-imidazo[4,5-b]pyridin-7-ylamino]-bicyclo[2.2.1]hept-5-ene-2-carboxylic acid amide]: the melting point came to 150 °C. The pIC50 in data set [1] is 5.00 to 6.00. Further, the pIC50 in data set [2] was 5.00 to 6.00.
In turn, `CN(C)c1ccc(-c2nc3c(N[C@H]4[C@@H](C(N)=O)[C@@H]5C=C[C@H]4C5)ccnc3[nH]2)cc1` [Compound LXXXVI, (1S,2S,3R,4R)-3-[2-(4-Dimethylamino-phenyl)-3H-imidazo[4,5-b]pyridin-7-ylamino]-bicyclo[2.2.1]hept-5-ene-2-carboxylic acid amide] came in with a melting point of 245 to 251 °C. Moreover, the pIC50 in data set [1] was 5.00 to 6.00. For the same compound, the pIC50 in data set [2] is under 5.00.
For `C=CCc1ccc(-c2nc3c(N[C@H]4[C@@H](C(N)=O)[C@@H]5C=C[C@H]4C5)c(Cl)cnc3[nH]2)c(OC)c1` [Compound LVI, (1S,2S,3R,4R)-3-[2-(4-Allyl-2-methoxy-phenyl)-6-chloro-3H-imidazo[4,5-b]pyridine-7-ylamino]-bicyclo[2.2.1]hept-5-ene-2-carboxylic acid amide], in that order: 123 to 126 °C, over 7.00 and over 7.00.
`CN(C)c1cccc(-c2nc3c(N[C@H]4[C@@H](C(N)=O)[C@@H]5C=C[C@H]4C5)c(Br)cnc3[nH]2)c1` [Compound LXXVII, (1S,2S,3R,4R)-3-[6-Bromo-2-(3-dimethylamino-phenyl)-3H-imidazo[4,5-b]pyridin-7-ylamino]-bicyclo[2.2.1]hept-5-ene-2-carboxylic acid amide] yielded a melting point of 220 to 221 °C. Further, the pIC50 in data set [1] is over 7.00. For the same compound, in data set [2], the pIC50 was over 7.00.
In the case of `COc1cccc(OC)c1-c1nc2c(N[C@H]3[C@@H](C(N)=O)[C@@H]4C=C[C@H]3C4)c(Br)cnc2[nH]1` [Compound CVI, (1S,2S,3R,4R)-3-[6-Bromo-2-(2,6-dimethoxy-phenyl)-3H-imidazo[4,5-b]pyridin-7-ylamino]-bicyclo[2.2.1]hept-5-ene-2-carboxylic acid amide], the melting point is 194 to 197 °C. Further, the pIC50 in data set [1] is 5.00 to 6.00. In addition, the pIC50 in data set [2] is 5.00 to 6.00.
In turn, `COc1cc(N2CCC(N3CCN(C)CC3)CC2)ccc1-c1nc2c(N[C@H]3[C@@H](C(N)=O)[C@@H]4C=C[C@H]3C4)c(Br)cnc2[nH]1` [Compound XCVIII, (1S,2S,3R,4R)-3-(6-Bromo-2-{2-methoxy-4-[4-(4-methyl-piperazin-1-yl)-piperidin-1-yl]-phenyl}-3H-imidazo[4,5-b]pyridin-7-ylamino)-bicyclo[2.2.1]hept-5-ene-2-carboxylic acid amide] returned a melting point of 185 to 195 °C. For the same compound, the pIC50 in data set [1] was over 7.00. Besides, the pIC50 in data set [2] is over 7.00.
`COC[C@H](O)CN1CCC(c2ccc(-c3nc4c(N[C@H]5[C@@H](C(N)=O)[C@@H]6C=C[C@H]5C6)c(Cl)cnc4[nH]3)c(OC)c2)CC1` [Compound LIV] came in with a melting point of 116 to 122 °C. Moreover, the pIC50 in data set [1] was over 7.00. Besides, the pIC50 in data set [2] is over 7.00.
Regarding `NC(=O)[C@@H]1[C@H](Nc2c(Cl)cnc3[nH]c(-c4ccc(C(=O)NC(CO)C(=O)O)cc4)nc23)[C@H]2C=C[C@@H]1C2` (stereo partly drawn) [Compound CCXXX, 2-(4-(7-((1R,2R,3S,4S)-3-carbamoylbicyclo(2.2.1)hept-5-en-2-ylamino)-6-chloro-3H-imidazo[4,5-b]pyridine-2-yl)benzamido)-3-hydroxypropanoic acid], the melting point is 186 °C. Also, in data set [1], the pIC50 is over 7.00. The pIC50 in data set [2] was 6.00 to 7.00.
On the same counts, the results for `COc1ccc(-c2nc3c(N[C@H]4[C@@H](C(N)=O)[C@@H]5C=C[C@H]4C5)c(Cl)cnc3[nH]2)c(C2CCNCC2)c1` [Compound XXX, (1S,2S,3R,4R)-3-[6-Chloro-2-(4-methoxy-2-piperidin-4-yl-phenyl)-3H-imidazo[4,5-b]pyridine-7-ylamino]-bicyclo[2.2.1]hept-5-ene-2-carboxylic acid amide] are 199 to 200 °C, 6.00 to 7.00 and 5.00 to 6.00.
On the same counts, the results for `NC(=O)[C@@H]1[C@H](Nc2c(Br)cnc3[nH]c(-c4ccccc4-n4cccn4)nc23)[C@H]2C=C[C@@H]1C2` [Compound CIV, (1S,2S,3R,4R)-3-[6-Bromo-2-(2-pyrazol-1-yl-phenyl)-3H-imidazo[4,5-b]pyridin-7-ylamino]-bicyclo[2.2.1]hept-5-ene-2-carboxylic acid amide] are 120 °C, 6.00 to 7.00 and 5.00 to 6.00.
For `NC(=O)[C@@H]1[C@H](Nc2ccnc3[nH]c(-c4cccc(CN5CCOCC5)c4)nc23)[C@H]2C=C[C@@H]1C2` [Compound XCI, (1S,2S,3R,4R)-3-[2-(3-Morpholin-4-ylmethyl-phenyl)-3H-imidazo[4,5-b]pyridin-7-ylamino]-bicyclo[2.2.1]hept-5-ene-2-carboxylic acid amide], in that order: 240 to 244 °C, 5.00 to 6.00 and under 5.00.
As to `COc1ccc(-c2nc3c(N[C@H]4[C@@H](C(N)=O)[C@@H]5C=C[C@H]4C5)c(Cl)cnc3[nH]2)c(C2CCN(C[C@@H](C)O)CC2)c1` [Compound XXXI], the melting point lay in the range of 186 to 187 °C. Moreover, in data set [1], the pIC50 was 6.00 to 7.00. In data set [2], the pIC50 was 5.00 to 6.00.
Turning to `NC(=O)[C@@H]1[C@H](Nc2c(Br)cnc3[nH]c(-c4cccc(N5CCOCC5)c4)nc23)[C@H]2C=C[C@@H]1C2` [Compound LXXXIII, (1S,2S,3R,4R)-3-[6-Bromo-2-(3-morpholin-4-yl-phenyl)-3H-imidazo[4,5-b]pyridin-7-ylamino]-bicyclo[2.2.1]hept-5-ene-2-carboxylic acid amide], the melting point fell in the range of 232 to 234 °C. In data set [1], the pIC50 was over 7.00. In data set [2], the pIC50 is over 7.00.
